ChEMBL document CHEMBL4619727, “Induced osteoblast differentiation by amide derivatives of stilbene: The possible osteogenic agents” (Bioorg Med Chem Lett, 2020)
Calls of active or inactive are those of the source. The calls are words filed in the database; no cut-off is given here.

How the values were obtained:
MCF7 = test: Cytotoxicity against human MCF7 cells assessed as cell growth inhibition at 30 ug/ml by MTT assay relative to control; assay type: functional; conditions: read-out: GI
Mus musculus [1] = test: Anti-osteoporosis activity in ovariectomized BALB/c mouse assessed as increase in femur bone volume density at 1 mg/kg, po via gavage administered for 1 month by microCT imaging analysis; assay type: functional, organism-based
Mus musculus [2] = test: Anti-osteoporosis activity in ovariectomized BALB/c mouse assessed as increase in trabecular thickness in femur bone at 1 mg/kg, po via gavage administered for 1 month by microCT imaging analysis; assay type: functional, organism-based
Mus musculus [3] = test: Anti-osteoporosis activity in ovariectomized BALB/c mouse assessed as reduction in trabecular spacing in femur bone at 1 mg/kg, po via gavage administered for 1 month by microCT imaging analysis; assay type: functional, organism-based
Mus musculus [4] = test: Anti-osteoporosis activity in ovariectomized BALB/c mouse assessed as reduction in trabecular pattern factor in femur bone at 1 mg/kg, po via gavage administered for 1 month by microCT imaging analysis; assay type: functional, organism-based
Mus musculus [5] = test: Anti-osteoporosis activity in ovariectomized BALB/c mouse assessed as increase in trabecular number in femur bone at 1 mg/kg, po via gavage administered for 1 month by microCT imaging analysis; assay type: functional, organism-based
[6] = biological target: Estrogen receptor beta (Mus musculus) (UniProt O08537); test: Induction of ESR2-mediated osteoblast differentiation in mouse calvarial osteoblast assessed as increase in ALP activity at 1 pM measured after 48 hrs by spectrophotometric analysis; assay type: cell-based
[7] = biological target: Estrogen receptor beta (Mus musculus) (UniProt O08537); test: Induction of ESR2-mediated osteoblast differentiation in mouse calvarial osteoblast assessed as increase in ALP activity at 100 pM measured after 48 hrs by spectrophotometric analysis; assay type: cell-based
Mus musculus [8] = test: Anti-osteoporosis activity in ovariectomized BALB/c mouse assessed as increase in femur bone volume density at 1 to 5 mg/kg, po via gavage administered for 1 month by microCT imaging analysis; assay type: functional, organism-based
Calvarial osteoblast [9] = test: Upregulation of ALP mRNA expression in mouse calvarial osteoblast at 1 pM to 100 pM measured after 24 to 48 hrs by qPCR analysis; assay type: functional, cell-based
Mus musculus [10] = test: Anti-osteoporosis activity in ovariectomized BALB/c mouse assessed as reduction in trabecular pattern factor in femur bone at 1 to 5 mg/kg, po via gavage administered for 1 month by microCT imaging analysis; assay type: functional, organism-based
Calvarial osteoblast [11] = test: Upregulation of ESR1 protein level in mouse calvarial osteoblast at 1 to 100 pM measured after 48 hrs by Western blot analysis; assay type: functional, cell-based
Mus musculus [12] = test: Anti-osteoporosis activity in ovariectomized BALB/c mouse at 5 mg/kg, po via gavage administered for 1 month by microCT imaging analysis; assay type: functional, organism-based
Mus musculus [13] = test: Anti-osteoporosis activity in ovariectomized BALB/c mouse assessed as reduction in trabecular spacing in femur bone at 1 to 5 mg/kg, po via gavage administered for 1 month by microCT imaging analysis; assay type: functional, organism-based
[14] = test system: Peritoneal macrophage cell; test: Cytotoxicity against peritoneal macrophage cells (unknown origin) at 5 to 20 uM by MTT assay; assay type: cell-based
Calvarial osteoblast [15] = test: Osteo-blastogenic activity in mouse calvarial osteoblast assessed as upregulation of Runx2 mRNA expression at 1 pM to 100 pM measured after 48 hrs by qPCR analysis; assay type: functional, cell-based
Mus musculus [16] = test: Anti-osteoporosis activity in ovariectomized BALB/c mouse assessed as increase in trabecular thickness in femur bone at 1 to 5 mg/kg, po via gavage administered for 1 month by microCT imaging analysis; assay type: functional, organism-based
Calvarial osteoblast [17] = test: Osteo-blastogenic activity in mouse calvarial osteoblast assessed as upregulation of BMP2 mRNA expression at 1 pM to 100 pM measured after 48 hrs by qPCR analysis; assay type: functional, cell-based
Mus musculus [18] = test: Anti-osteoporosis activity in ovariectomized BALB/c mouse assessed as increase in trabecular number in femur bone at 1 to 5 mg/kg, po via gavage administered for 1 month by microCT imaging analysis; assay type: functional, organism-based
[19] = biological target: Estrogen receptor beta (Mus musculus) (UniProt O08537); test: Induction of ESR2-mediated osteoblast differentiation in mouse calvarial osteoblast assessed as formation of mineralized nodule at 1 to 10 uM measured after 21 days by alizarin red staining based assay; assay type: cell-based
Calvarial osteoblast [20] = test: Upregulation of ESR2 protein level in mouse calvarial osteoblast at 1 to 100 pM measured after 48 hrs by Western blot analysis; assay type: functional, cell-based
[21] = biological target: Estrogen receptor beta (Mus musculus) (UniProt O08537); test: Induction of ESR2-mediated osteoblast differentiation in mouse calvarial osteoblast assessed as increase in ALP activity at 1 nM measured after 48 hrs by spectrophotometric analysis; assay type: cell-based

Sequence of Estrogen receptor beta (Mus musculus) (O08537 whole entry): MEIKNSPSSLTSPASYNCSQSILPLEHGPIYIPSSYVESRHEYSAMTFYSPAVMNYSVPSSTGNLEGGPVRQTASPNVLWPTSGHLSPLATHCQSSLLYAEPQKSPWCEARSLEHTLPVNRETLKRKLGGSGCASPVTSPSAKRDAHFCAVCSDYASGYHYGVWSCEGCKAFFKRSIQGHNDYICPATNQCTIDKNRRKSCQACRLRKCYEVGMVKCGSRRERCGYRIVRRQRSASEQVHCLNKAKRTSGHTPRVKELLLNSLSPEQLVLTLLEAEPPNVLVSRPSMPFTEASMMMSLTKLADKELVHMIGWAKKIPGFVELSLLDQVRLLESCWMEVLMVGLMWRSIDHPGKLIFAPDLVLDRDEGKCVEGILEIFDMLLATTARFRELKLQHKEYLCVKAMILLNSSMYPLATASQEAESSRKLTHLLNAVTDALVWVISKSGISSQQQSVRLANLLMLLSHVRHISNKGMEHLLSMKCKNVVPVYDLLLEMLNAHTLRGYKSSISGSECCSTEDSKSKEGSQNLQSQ

Question: How did the inhibition of growth at 30 µg/mL (MCF7) turn out when `COc1ccc(/C(C)=C(\CCCCCC(=O)NCc2ccccn2)c2ccccc2)cc1` was run?
Answer: 30 to 48%

Question: `O=C(c1ccc(OCCN2CCCCC2)cc1)c1c(-c2ccc(O)cc2)sc2cc(O)ccc12` was tested. Which Activity (Mus musculus [1]) did it give?
Answer: Active

Question: And the Activity (Mus musculus [2])?
Answer: Active

Question: What about the Activity (Mus musculus [3]) of the same molecule?
Answer: Active

Question: What about the Activity (Mus musculus [4]) of the same molecule?
Answer: Active

Question: And the Activity (Mus musculus [5])?
Answer: Active

Question: How did the inhibition of growth at 30 µg/mL (MCF7) turn out when `COc1ccc(/C(C)=C(\CCCC(=O)N2CCCC2)c2ccccc2)cc1` was run?
Answer: 48.4%

Question: `COc1ccc(/C(C)=C(\CCCCCC(=O)NCCc2ccccn2)c2ccccc2)cc1` was tested. Which inhibition of growth at 30 µg/mL (MCF7) did it give?
Answer: 30 to 48%

Question: How did the Activity [6] turn out when `COc1ccc(/C(C)=C(\CCCCCC(=O)N2CCCC2)c2ccccc2)cc1` was run?
Answer: Active

Question: And the inhibition of growth at 30 µg/mL (MCF7)?
Answer: 30 to 48%

Question: For `COc1ccc(/C(C)=C(\CCCC(=O)NCc2ccccn2)c2ccccc2)cc1`, which inhibition of growth at 30 µg/mL (MCF7) is on record?
Answer: 30 to 48%

Question: `COc1ccc(/C(C)=C(\CCCC(=O)NCCc2ccccn2)c2ccccc2)cc1` was tested. Which Activity [7] did it give?
Answer: Active

Question: Which Activity [6] does the source give for `CCCCCN(C)C(=O)C/C(=C\c1ccccc1)c1ccc(OC)cc1` here?
Answer: Active

Question: What about the inhibition of growth at 30 µg/mL (MCF7) of the same molecule?
Answer: 30 to 48%

Question: Which results are given for `CCCCN(C)C(=O)CCCCC/C(=C(/C)c1ccc(OC)cc1)c1ccccc1`?
Answer: Activity (Mus musculus [8]): Active; Activity [6]: Active; Activity (Calvarial osteoblast [9]): Active; Activity (Mus musculus [10]): Active; Activity (Calvarial osteoblast [11]): Active; Activity (Mus musculus [12]): Active; Activity (Mus musculus [13]): Active; inhibition of growth at 30 µg/mL (MCF7): 32.1%; Activity [14]: Non-Toxic; Activity (Calvarial osteoblast [15]): Active; Activity (Mus musculus [16]): Active; Activity (Calvarial osteoblast [17]): Active; Activity (Mus musculus [18]): Active; Activity [19]: Active; Activity (Calvarial osteoblast [20]): Active

Question: For `COc1ccc(/C(=C/c2ccccc2)CC(=O)NC(C)C)cc1`, which inhibition of growth at 30 µg/mL (MCF7) is on record?
Answer: 30 to 48%

Question: Which inhibition of growth at 30 µg/mL (MCF7) does the source give for `COc1ccc(/C(=C/c2ccccc2)CC(=O)NCCc2ccccn2)cc1` here?
Answer: 30 to 48%

Question: How did the inhibition of growth at 30 µg/mL (MCF7) turn out when `COc1ccc(/C(=C/c2ccccc2)CC(=O)N2CCCC2)cc1` was run?
Answer: 30 to 48%

Question: Which Activity [6] does the source give for `CCCCN(C)C(=O)CCC/C(=C(/C)c1ccc(OC)cc1)c1ccccc1` here?
Answer: Active

Question: How did the Activity [21] turn out when `COc1ccc(/C(=C/c2ccccc2)CC(=O)N(C(C)C)C(C)C)cc1` was run?
Answer: Active
